# According to paper PMC12752563, “Caffeic Acid Acts as a Potent Senomorphic and Alleviates Inflammation and Lung Fibrosis by Covalently Targeting Annexin A5 Protein in Mice” (Exploration, 2025):
# Legend:
# [1] = target: T1, Annexin A5 (ANXA5) (Homo sapiens, UniProt P08758); assay: in-gel fluorescence after click chemistry; type: binding; conditions: covalent; 12% SDS-PAGE
# T1 construct: recombinant protein purified from E. coli; His-tag labelled for MST
# T1 sequence (P08758 2-320): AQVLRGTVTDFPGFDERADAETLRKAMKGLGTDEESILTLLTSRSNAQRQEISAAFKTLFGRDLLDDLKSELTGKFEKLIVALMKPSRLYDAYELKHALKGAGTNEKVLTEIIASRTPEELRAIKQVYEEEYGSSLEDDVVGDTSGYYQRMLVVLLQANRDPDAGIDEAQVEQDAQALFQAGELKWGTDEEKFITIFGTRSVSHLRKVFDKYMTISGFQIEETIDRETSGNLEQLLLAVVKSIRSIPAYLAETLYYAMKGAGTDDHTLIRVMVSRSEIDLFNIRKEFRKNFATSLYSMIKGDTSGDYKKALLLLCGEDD
# [2] = target: T1, Annexin A5 (ANXA5); assay: microscale thermophoresis; type: binding
Structure (SMILES),in-gel fluorescence after click chemistry [1],Kd [2] [µM]
C#CCNC(=O)/C=C/c1ccc(O)c(O)c1 [CA probe],wild‐type ANXA5 could be labeled by CA‐probe,–
"O=C(O)/C=C/c1ccc(O)c(O)c1 [CA, caffeic acid]",–,3.68
